# Read-outs that look alike come from different tables or passages of the source.
# Key:
# [1] = tested on: 3TC-resistant (xxBRU 184V) HIV-1; experiment: HIV-1 RT-assay on supernatant of acutely infected human PBM cells, strain xxBRU 184V; format: cell-based; details: for EC90: human PBM cells, 5 days, RT activity reduced by 90%, read-out: RT-Assay 184V EC90
# Experimental: (§1) Human PBM cells (1×10^6 cells/T25 flask) were PHA stimulated for 2 or 3 days, and infected with either a wild type (LAI and xxBRU) or a 3TC-resistant (xxBRU 184V) HIV-1 strain at 100 TCID50, as previously described (27). The culture was kept for 5 days in presence of test compounds at serial 1-log dilutions. Subsequently, human PBM cells were removed from the culture supernatant by centrifugation (10 minutes, 400×g, 4° C.). This clarified supernatant was tested either in the RT-assay, or in the Q-RT-PCR assay.
# (§2) Virus particles present in a 1 mL aliquot of culture supernatant were concentrated by high-speed centrifugation (2 hours, 20,000×g, 4° C.). The supernatant was then removed and the virus pellet was dispensed into a 100 μL virus solubilization buffer (VSB: 0.5% Triton X-100; 0.8 M NaCl, 0.5 mM phenylmethylsulfonyl, 20% glycerol, 50 mM Tris.HCl pH 7.8). A 10 μL aliquot of RT-VSB was mixed with 75 μL RT cocktail (60 mM Tris.HCl pH 7.8, 12 mM MgCl2, 6 mM DTT, 6 μg/mL poly (rA)n-oligo (dT)10-12, 1.2 mM dATP, and 80 μCi/mL 3H-TTP) and incubated for 2 hours at 37° C. Subsequently 100 μL of 10% TCA was added, and the total amount of incorporated 3H-TTP was determined.
# (§3) HIV-1 present in culture supernatant fluids was quantified by two different methodologies: i) the Q-RT-PCR with read-out in log copies/mL; and ii) the endogenous viral RT assay on cell supernatant with read-out in log counts per minute/mL (CPM/mL). Upon addition of antiviral compounds to the culture media, a dose-related decrease in virus production was observed. Although the two methodologies measured different parameters (viral RNA versus active RT enzyme), results were not markedly different from each other. The HIV-1 Q-RT-PCR results were compared with a previously established cell-based antiviral drug evaluation assay (endogenous HIV-1 RT polymerization activity in cell supematant)(27).
# [2] = tested on: HIV-1 LAI (wild type); experiment: HIV-1 Q-RT-PCR assay in human PBM cells, strain LAI; format: cell-based; details: 5 days, viral RNA reduced by 90%
# Experimental: as §1
# (§4) Viral RNA present in the culture supernatant was prepared using commercially available columns (QIAamp Viral RNA mini Kit, Qiagen, Valencia, Calif.). Viral RNA was detected in real-time by monitoring increases in fluorescence signal that resulted from degradation of a quenched fluorescent probe molecule following the hybridization of the probe to the arnplified viral DNA (TaqMan 7700 chemistry, Applied Biosystems, Foster City, Calif.). The TaqMan probe and primers were designed using the Primer Express software (Applied Biosystems); they cover highly conserved sequences complementary to an 81 base pair long fragment from the HIV-1 RT gene between codon 230 and 257 of the group MHIV-1 genome; • probe 5′-6FAM-[…]-TAMRA-3′ (Sequence 1) • sense primer: 5′-[…]-3′ (Sequence 2); and • antisense primer 5′-[…]-3′ (Sequence 3).
# (§5) A total of 5 μL RNA was RT-amplified using reagents and conditions as described by the manufacturer (Applied Biosystems). […] Copy numbers were calibrated using the Roche Amplicor HIV-1 Monitor test™ (Roche Diagnostics, Branchburg, N.J.) on a 1-log dilution series of a clinical HIV-1 genotype B isolate (attenuated in vitro to obtain a high viral load). The 10-6 diluted sample became positive at threshold cycle (Ct=PCR cycle threshold where a sample becomes detectable)=35.52, which corresponded to 1,410 copies/mL in the Roche monitor HIV-1 version II assay. When validated over a dynamic range of 3 logs of virus, there was excellent correlation (r2˜1) between the two methodologies. […] Therefore, the currently designed primer and probe set allowed reliable quantification of both clinical samples and HIV-1 in vitro preparations.
# as §3
# [3] = tested on: HepG2; experiment: Toxicity assay (MTS/MTT dye), HepG2 cells; details: for Cytotoxicity HepG2 IC30: HepG2, three day-incubation (Table 1)
# Experimental: (§6) After a three day-incubation for HepG2, or 5 days for human PBM cells, cell viability and mitochondrial activity were measured in a colorimetric assay using the MTS- or MTT dye method (Promega, Madison, Wis.).
# [4] = tested on: HIV-1 xxBRU (wild type); experiment: HIV-1 Q-RT-PCR assay in human PBM cells, strain xxBRU; format: cell-based; details: 5 days, viral RNA reduced by 90%
# Experimental: as §1, §4, §5, §3
# [5] = tested on: HIV-1 xxBRU (wild type); experiment: HIV-1 RT-assay on supernatant of acutely infected human PBM cells, strain xxBRU; format: cell-based; details: 5 days, RT activity reduced by 90%
# Experimental: as §1, §2, §3
# [6] = tested on: BVDV (strain NADL); experiment: BVDV Q-RT-PCR assay in MDBK cells; format: cell-based, bovine viral diarrhea virus; details: MDBK cells, 24 hour incubation, viral RNA in supernatant, read-out: BVDV assay Q-PCR EC90
# Experimental: Madin-Darby Bovine Kidney (MDBK) cells were maintained in DMEM/F12 supplemented with 10% heat-inactivated horse serum at 37° C. in a humidified, 5% CO2 atmosphere. Cells were seeded in 96-well plates at 5×10^3 cells/wcll and incubated for 1 hour. BVDV (strain NADL) was used to infect the cells in monolayer at MOI 0.02. After 45 minutes of infection, the viral inoculum was removed and the cells were washed twice. Media or media containing test compound was added to these cells, followed by 24 hour incubation. Cell supernatant fluids were collected, clarified by centrifugation (2 minutes, 3,000 g, room temperature) and viral RNA was prepared (QIAamp Viral RNA mini Kit, Qiagen). Viral RNA was detected in real-time RT-PCR.
# [7] = tested on: human PBM cells; experiment: Toxicity assay (MTS/MTT dye), human PBM cells; details: read-out: Cytotoxicity PBM IC50; human PBM cells, 5 days incubation
# Experimental: as §6
# [8] = tested on: HIV-1 LAI (wild type); experiment: HIV-1 RT-assay on supernatant of acutely infected human PBM cells, strain LAI; format: cell-based; details: 5 days, RT activity reduced by 90%
# Experimental: as §1, §2, §3
# [9] = tested on: 3TC-resistant (xxBRU 184V) HIV-1; experiment: HIV-1 Q-RT-PCR assay in human PBM cells, strain xxBRU 184V; format: cell-based; details: for EC90: human PBM cells, 5 days, viral RNA reduced by 90%, read-out: Q-RT-PCR HIV-1 assay 184V EC90
# Experimental: as §1, §4, §5, §3
# [10] = in vitro; details: human
# Experimental: as §6
# [11] = in vitro; details: human; remark: listed apart in the source
# Experimental: as §6
# [12] = tested on: HBV; experiment: HBV Q-PCR assay in HepAD38 (AD38) cells; format: cell-based, hepatitis B virus; details: AD38 cells, 5-day incubation, HBV DNA in supernatant, read-out: HBV assay Q-PCR EC90
# Experimental: The HepAD38 cell line replicates HBV under conditions that can be regulated with tetracycline (12, 15). In the presence of this drug, the cell supernatant is virtually free of viral DNA, but upon the removal of tetracycline from the culture medium, these cells secrete virus-like particle into the supernatant (12). HepAD38 cells were seeded at 5×10^4 cells/well in a 96-well plate in seeding medium (DMEM/F12+10% FBS, 50 μg/mL penicillin, 50 μg/mL streptomycin, 100 μg/mL kanamycin, 400 μg/mL G418, and 0.3 μg/mL tetracycline) and incubated for 2 days at 37° C. in a 5% CO2 humid atmosphere. The seeding media was removed, and cells were washed 3 times with PBS. Cells were then incubated with 200 μL assay medium (DMEM/F12+10% FBS+P/S/K) containing either no compound, test compound, or control drugs at 10 μM. After a 5-day incubation, the cell supernatant was collected and stored at −70° C. until HBV DNA was quantified. HBV DNA was extracted from supernatant using QiaAmp DNA blood Mini kit (Qiagen) and nucleic acids eluted in 200 μL. Viral DNA was detected in Q-PCR. The TaqMan probe and primers were designed using the Primer Express software (Applied Biosystems) and cover highly conserved sequences complementary to the DNA sequences present in HBsAg (24). A total of 5 μL DNA was amplified using reagents and conditions as described by the manufacturer (Applied Biosystems). […]
Compound,"RT-Assay FI, fold increase (EC90 HIV-1184V/EC90 HIV-1xxBRU) [1]",EC90 [1] [µM],EC90 [2] [µM],Cytotoxicity HepG2 IC30 [3] [µM],"IC50 ([3]; read-out: Cytotoxicity HepG2 IC50, HepG2, three day-incubation (Table 3)) [µM]",EC90 [4] [µM],EC90 [5] [µM],EC90 [6] [µM],IC50 [7] [µM],EC90 [8] [µM],"Q-RT-PCR HIV-1 assay FI, fold increase (EC90 HIV-1184V/EC90 HIV-1xxBRU) [9]",EC90 [9] [µM],IC50 at 3 days [10] [µM],EC90 ([6]; Bovine viral diarrhea virus isolates and strains) [µM],IC50 at 5 days [11] [µM],"EC90 ([12]; Hepatitis B virus, HePAD38, 120 h) [µM]",EC90 [12] [µM]
"Nc1nc(=O)n([C@H]2C=C[C@@H](CO)O2)cc1F [D-D4FC, β-D-2′,3′-didehydro-2′3′-dideoxy-5-fluorocytidine, reference compound]",1.9,0.15,0.38,>100,> 100,0.22,0.08,> 200,80,0.18,0.97,0.21,–,–,–,–,–
"NC(=O)c1ncn([C@@H]2O[C@H](CO)[C@@H](O)[C@H]2O)n1 [Ribavirin, 1-β-D-ribofuranosyl-1H-,1,2,4-triazole-3-carboxamide, reference compound]",–,–,–,–,–,–,–,–,–,–,–,–,90,5,> 100,> 100,–
"β-D-2′,3′-didehydro-2′,3.′-dideoxy-3′-fluoro-5-fluoro cytidine [Compound 10-F]",13.2,494,36.3,>100,–,34.8,37.5,> 200,–,34.5,–,> 100,–,–,–,–,> 100
"β-L-2′,3′-didehydro-2′,3.′-dideoxy-3′-fluoro-5-fluoro cytidine [Compound 23-F]",479,67,0.09,>100,–,0.16,0.14,> 200,–,0.12,333,53,–,–,–,–,68
